Experiments:
Nmrk2 promoter = Nmrk2 promoter luciferase reporter assay in NRC; format: cell-based, rat; conditions: for activity of the Nmrk2 promoter (p3009-Luc): NRC co-transfected with PPARα and RXR expression vectors; for Nmrk2 promoter induction by AICAR: NRC, p3009-Luc, antagonist added 30 minutes before AICAR for 24 h
Method: Isolation and Treatments of Neonatal Rat Cardiomyocytes (NRC) NRC were isolated as described previously (Diguet et al., 2011). 1-day-old rat pups were killed by decapitation and the cardiac ventricles were harvested and minced into 1 to 2-mm wide cubes with scissors. After washing with Tyrode solution, heart fragments were subjected up to 10 rounds of digestion with 0.05 mg/ml of Liberase Blendzyme 4 (Roche Applied Science) in 10 ml oxygenated Tyrode solution under agitation at 37° C. for 10 minutes. The supernatant of the first digestion was discarded and the following digestions were centrifuged and the cell pellet dissociated in 2 ml of DMEM, 10% FCS. The different fractions were pooled and centrifuged on a discontinuous Percoll gradient (bottom 58.5%. top 40.5%. 30 min. 3000 rpm) to enrich in cardiomyocytes at the interface between the 2 Percoll solutions. Non cardiac cells containing mainly fibroblasts were at the top of the tubes. Neonatal cardiomyocytes were seeded at a density 5×10^5 cells/well in 6-well plates coated with 10 μg/ml of laminin (BD Biosciences) in DMEM without pyruvate, with glucose 4.5 g/l, 10% horse serum, 5% FCS and cultured at 37° C. in 1% CO, atmosphere. To assay the impact on NAD^+ and Nmrk2 expression, Azaserin and FK866 drugs were added in the culture medium at day 5 and renewed everyday when the treatment was prolonged over several days. The same was done for NAD^+, NR and AICAR (5-aminoimidazole-4-carboxamide-1-β-D-ribofuranoside). AICAR was administrated for 24 h only. Doses are indicated in the legends. For treatment of transfected cells (see next section), AICAR, FK866 and PPAR agonists and antagonist were administrated 1 day after transfection. PPAR agonists: GW7647 for PPARα, GW501516 for PPARβ/δ and GW1929 for PPARγ; PPAR antagonists: GW6471 PPARα, GSK3787 for PPARβ/δ and GW9662 for PPARγ were ordered from SIGMA ALDRICH CHIMIE, Saint Quentin Fallavier, France.
The transcription initiation site of mouse Nmrk2 promoter was determined by 5′RACE and was conform to the reported site in the Genebank (NM_027120.2). The promoter of the mouse Nmrk2 gene was cloned from C57B16/N genomic DNA by PCR, and inserted into a pGL4.10[luc2] luciferase reporter plasmid (Promega prod no E6651). Subsequent deletions were performed by enzymatic digestion or primer mediated subcloning of the original fragment. 2.5×10^5 cardiomyocytes in 12-well plates were co-transfected at day 2 of culture with 1 μg of Nmrk2 pGL4.10[luc2] constructs and 100 ng of pGL4.73[hRluc/SV40] Vector (Promega prod no E6911) as an internal control of transfection efficiency using Lipofectamine 2000 (Lifetechnology) as indicated by the supplier. In the case of AICAR treatment, Luciferase activity was analyzed 48 h later with the Dual-Luciferase Assay System (Promega).
The pcDNA3 vectors harboring dominant negative AMPK, PPARα, PPARβ and PPARγ as well as RXR genes were kindly provided by Pr. Michel Raymondjean (El Hadri et al. (2015). AMPK Signaling Involvement for the Repression of the IL-1beta-Induced Group IIA Secretory Phospholipase A2 Expression in VSMCs. Journal 10, e0132498; Ravaux et al. (2007). Inhibition of interleukin-1 beta-induced group 11A secretory phospholipase A2 expression by peroxisome proliferator-activated receptors (PPARs) in rat vascular smooth muscle cells: cooperation between PPARbeta and the proto-oncogene BCL-6. Journal 27, 8374-8387; Woods et al. (2000). Characterization of the role of AMP-activated protein kinase in the regulation of glucose-activated gene expression using constitutively active and dominant negative forms of the kinase. Journal 20, 6704-6711). These vectors were cotransfected at a dose of 100 ng/well in 24-well plates with 500 ng of Nmrk2 luciferase constructs.

Lmna^H222P/H222P mice [1] = assay: qPCR of cardiac remodeling markers Myh7, Nppa, Col1a2 in heart; format: in vivo, mouse; conditions: NAM 500 mg/kg/q.a.d. IP, 9 weeks
Method: (§1) Mice were bred in an accredited animal facility (accreditation number: C-75-13-08). All experiments on mice were approved by the Comité d'éthique en expérimentation animate Charles Darwin No 5. Mice Lmna^H222P/H222P were backcrossed 8 times to 129S2/SvPasOrlRj strain mice to obtain pure genetic background. Male mice used for the studies were maintained under a 12 h light/12 h dark cycle at constant temperature (23° C.) with free access to food and water. Nicotinamide riboside (NR) complementation: Animals at 17 weeks of age were fed for 9 weeks with either a chow diet (A04: Scientific Animal Food & Engineering) or a chow diet complemented with 0.25% of NR (kindly provided by ChromaDex, Inc. California) corresponding to a dose of 400 mg/kg/day for a mouse weighing 25 g eating 4 g of food per day. Nicotinamide (NAM) treatment: Animals at 17 weeks of age were injected intraperitoneally (IP) every two days (q.a.d.) for 9 weeks with either physiologic serum or physiologic serum added with NAM at 50 mg/ml corresponding to a dose of 500 mg/kg for a mouse weighing 25 g.
Total RNAs were extracted from around 5 mg of mouse heart using RNeasy Mini kit (Qiagen). RNAs integrity were controlled on the Bioanalyzer 2100 (Agilent). […] Relative mRNA transcript levels calculated using the 2^ΔCT method were normalized by comparison to housekeeping mRNA.

SRF^HKO mice = assay: RT-qPCR gene expression in SRF HKO heart; format: in vivo, mouse; conditions: i.p. administration from D8 to D15
Description: (§2) Transgenic mice. All experiments with animals conformed to the Directive 2010/63/EU of the European Parliament and were approved by the ethics committee Charles Darvin #5 (agreement 00369.01). SRF^HKO mice bear the tamoxifen-inducible α-MHC-MerCrMer transgene and the Siffloxed allele (Sf/Sf) as described previously (Parlakian et al. (2005). Temporally controlled onset of dilated cardiomyopathy through disruption of the SRF gene in adult heart. Journal 112, 2930-2939; Tritsch et al. (2013). An SRF/miR-1 axis regulates NCX1 and Annexin A5 protein levels in the normal and failing heart. Journal 98, 372-380). Transgenic mice have been bred for more than 20 generations in C57BL/6N background. The mice were housed in standard animal facility (CEF. Hôpital Pitié Salpétrière, agreement A-75-13-15, 75013 Paris), under a 12-h dark/light cycle. Tamoxifen (Sigma T5648) was administrated by i.p. injection at a dose of 0.7 mg diluted in 100 μl peanut oil at day (D) 0, D1 and D2. (Sf/Sf) littermates injected with tamoxifen at the same time than mutant were used as controls.
Nicotinamide and nicotinamide riboside i.p. administration. Nicotinamide was diluted in saline at 300 mM. Nicotinamide riboside (NR) bromide salt stock solution (1M) was in 10 mM citric acid pH 6.0. For injection 3 volumes of NR stock solution was mixed extemporaneously with 7 volumes of PBS to obtain a 300 mM injectable solution at pH 7.2. Mice were injected daily at a dose of 1 μmole/g body weight.
SRF^HKO and control (Sf/Sf) mice were administered either rodent maintenance SAFE A04 diet containing 3.10% crude fat. 16.10% crude proteins. 26% starch and 1.9% sugar (Scientific Animal Food Engineering, Paris, France) or SAFE # A04 diet supplemented with NR. NR was provided by Chromadex under brand name NIAGEN (Irvine Calif. USA). The soft pellets were manually prepared every 5 days by mixing 1.65 g of NR into 500 g of powdered SAFE A04 diet and 235 ml of water to reach 2.24 mg of NR/g (wet weight). Control diet was prepared in the same way omitting NR. Mice had ad libitum access to food and water. Mice (average body weight 31.3±0.82 g, no difference between groups) consumed an average of 6 g of soft food per day, reaching a daily intake of 450 mg NR/kg. No difference in food intake was observed between SRF^HKO and control mice.
cDNAs were reverse transcribed from RNA (1.5 μg) extracted in TRIzol (Thermofisher) from cell cultures and tissues using the Superscript II Reverse Transcriptase (Life Technologies). Quantitative PCR was carried out on a Light Cycler 480 (Roche Diagnostics) using Fast Start SYBR Green Master (Roche Diagnostics). Quantification of gene expression was calculated as R=2^ΔCt(Ref Cp−target Cp), with Hprt used as a as reference. Primers were designed using the NCBI Primer-BLAST software. Primer sequences are available on request.

Lmna^H222P/H222P mice [2] = assay: Echocardiography and heart size in treated Lmna H222P/H222P mice; format: in vivo, mouse; conditions: NAM 500 mg/kg/q.a.d. IP, 9 weeks, vs placebo
Method: as §1
Mouse transthoracic echocardiography was performed using an ACUSON 128XP/10 ultrasound with a 11 Mhz linear probe (Mountain View).MHz transducer applied to the chest wall. Mice were maintained under anesthetized with 0.75% isoflurane anaesthesia (0.75% in O2) and placed on a heating pad (25° C.). Left ventricular (LV) parameters were obtained from M-mode recordings in a modified short axis view. The intra ventricular septum (IVS), LV posterior wall (LVPW), LV diameter (LVD) in diastole and systole, the percentage of fractional shortening (FS) and the heart rate (HR) were measured from the mean of at least three separate cardiac cycles. A “blinded” echocardiographer, unaware of the genotype and the treatment, performed the examinations.

Lmna^H222P/H222P mice [3] = assay: NAD+ content quantification in heart and liver of treated Lmna H222P/H222P mice; format: in vivo, mouse; conditions: NAM 500 mg/kg/q.a.d. IP, from 17 weeks of age for 9 weeks, vs placebo
Method: as §1, with “Nicotinamide (NAM) treatment: Animals at 17 weeks of age were injected intraperitoneally (IP) every two days (q.a.d.) for 9 weeks with either physiologic serum or physiologic serum added with NAM at 50 mg/ml corresponding to a dose of 500 mg/kg for a mouse weighing 25 g.” left out
Fresh mouse tissues were homogenized and processed according to previous report (Sander B J, Oelshlegel F J & Brewer G J (1976) Quantitative analysis of pyridine nucleotides in red blood cells: a single-step extraction procedure. Anal. Biochem. 71: 29-36). The concentration of NAD+ in heart tissue was determined using a spectrophotometric assay at 550 nm based on an alcohol dehydrogenase cycling reaction, in which a Methyl Thiazolyl Tetrazolium (MTT) is reduced to Formazan. […]

control hearts = assay: Transcriptomic analysis of control hearts after phenylephrine administration; format: in vivo, mouse; conditions: PE 80 mg/kg/day for 15 days
Description: as §2
(§3) The series of mice treated with PE and the impact of the treatment on cardiac parameters have been published previously (Tritsch et al. (2013). An SRF/miR-1 axis regulates NCX1 and Annexin A5 protein levels in the normal and failing heart. Journal 98, 372-380). Briefly. […]

SRF^HKO hearts = assay: Transcriptomic analysis of SRF HKO hearts after phenylephrine administration; format: in vivo, mouse
Description: as §2, §3

Structure (SMILES): CCC(=O)NC[C@H](Cc1ccc(OCCc2nc(-c3ccccc3)oc2C)cc1)N/C(C)=C\C(=O)c1ccc(C(F)(F)F)cc1 [G6471]
- activity of the Nmrk2 promoter (p3009-Luc) (Nmrk2 promoter; antagonist 10 μM): repressed
- Nmrk2 promoter induction by AICAR (Nmrk2 promoter): blunted

Structure (SMILES): O=C(Nc1ccccc1)c1cc([N+](=O)[O-])ccc1Cl [G9662]
- Nmrk2 promoter induction by AICAR (Nmrk2 promoter): Neither the PPARβ antagonist GSK3787 nor the PPARγ antagonist G9662 had any effect

Structure (SMILES): O=C(NCCS(=O)(=O)c1ccc(C(F)(F)F)cn1)c1ccc(Cl)cc1 [GSK3787]
- Nmrk2 promoter induction by AICAR (Nmrk2 promoter): Neither the PPARβ antagonist GSK3787 nor the PPARγ antagonist G9662 had any effect

Structure (SMILES): CC(C)(Sc1ccc(CCN(CCCCC2CCCCC2)C(=O)NC2CCCCC2)cc1)C(=O)O [GW7647]
- activity of the Nmrk2 promoter (p3009-Luc) (Nmrk2 promoter; agonist 0.6 μM): increased

Structure (SMILES): NC(=O)c1cccnc1 [NAM, Nicotinamide]
- expression of Myh7, Nppa and Col1a2 (Lmna^H222P/H222P mice [1]): no changed expression
- Srf and Nmrk2 expression levels (SRF^HKO mice): not changed
- cardiac contractility (Lmna^H222P/H222P mice [2]): no significant changes
- left-ventricular end diastolic diameter (Lmna^H222P/H222P mice [2]): no significant changes
- left-ventricular end systolic diameter (Lmna^H222P/H222P mice [2]): no significant changes
- NAD+ content in liver and heart (Lmna^H222P/H222P mice [3]): did not exhibit any changes

Structure (SMILES): CNC[C@H](O)c1cccc(O)c1 [PE, phenylephrin]
- Nmrk2 expression (control hearts): 4 fold
- Nmrk2 expression (SRF^HKO hearts; PE 80 mg/kg/day for 15 days, SRF HKO hearts): 57 fold
- Nampt and Pnp expression (SRF^HKO hearts; PE treatment): depressed
